Data from patent publication US20090291088A1, “THERAPEUTIC COMBINATIONS OF ANTI-IGF-1R ANTIBODIES AND OTHER COMPOUNDS” (Biogen Idec MA Inc., priority 2008, published 2009).

Tests used:
[1] = test system: NSCLC, pancreatic and colon cancer cell lines; assay: Cell viability, M13-C06 and PI-103 alone or combined; format: cell-based; details: PI-103, colon cancer cell lines
Procedure: Cells were plated at 5000 cells/well in 96-well tissue culture plates in cell culture medium containing 10% fetal bovine serum, then treated with M13-C06 or PI-103 (American Custom Chemicals Corp. cat# 371935-74-9) as single agents or in combination at 1:3 serial dilutions with a starting concentration of 200 nM and 10 microM for M13-C06 and PI-103 respectively. The cell viability was determined three or five days later by measuring ATP levels with CELL TITER GLO™ reagent from Promega.

[2] = test system: AKT and MAPK phosphorylation in NSCLC cell lines; assay: Western blot of AKT and MAPK phosphorylation, M13-C06 and erlotinib; format: cell-based; details: 10 microM erlotinib, 3 hours
Procedure: We set to determine the molecular mechanisms underlying the observed enhanced anti-tumor effect of combining erlotinib and M13-C06 in NSCLC cell lines. AKT and MAPK activation status was evaluated after treatment with erlotinib and M13-C06 as single agents or in combination, since AKT and MAPK are common downstream signaling targets of IGF-1R and EGFR. Tumor cell lines were plated onto 6-well plates at 1.2×10^6 per well, in RPMI+10% FBS media, and allowed to adhere overnight. The following day, media from wells was removed and replaced with 100 nM M13-C06 or IDEC151 (human IgG4 isotype control antibody) in combination with either media (single agent control) or 10 microM erlotinib in media. Assay plates were incubated in a 37° C., 5% C02 humidified incubator for 3 hours, and cellular proteins were extracted in cell lysis buffer (Cell Signaling Technology, cat# 9803 (Danvers, Mass. USA)). Protein concentrations in lysates were measured using a BCA protein assay kit (Pierce, cat# 23227 (Pierce Biotechnology, Inc., Rockford, Ill.)) and equal amount of proteins were run on a NUPAGE 4-12% Tris-Bis gel, and transferred to a nitrocellulose membrane (0.45 μm pore). Phosphorylation was detected by treatment with antibodies specific for phospho-AKT, total AKT, phospho-MAPK, or total MAPK (Cell Signaling technology, cat #9271, 9272, 9101, 9102), followed by treatment with anti-Rabbit-IgG-HRP (Southern Biotech. cat# 4050-05). Blots were developed with Supersignal Western Substrate Kit (Pierce, cat#34095) and the chemiluminescent image was captured on a BioRad Max2 imager. […] In general, the effects of M13-C06 and erlotinib on downstream signaling molecules AKT and MAPK correlate with their effects on cell growth as shown in FIG. 41.

[3] = test system: NSCLC, pancreatic and colon cancer cell lines; assay: Cell viability, M13-C06 and erlotinib alone or combined; format: cell-based
Procedure: M13-C06 (human IgG4 Pagly anti-IGF-1R antibody) is currently in clinical development for multiple solid tumors. We evaluated the effect of anti-IGF-1R M13-C06 in combination with erlotinib (American Custom Chemicals Corp., cat# 183319-69-9 (San Diego, Calif.)) on the growth (proliferation) of a panel of NSCLC, pancreatic and colon cancer cell lines. Cells were plated at 5000 cells per well in 96-well tissue culture plates in RPMI-1640 (containing 10% fetal bovine serum (FBS, Hyclone cat# Sh30071.03)) and then treated with M13-C06 or erlotinib as single agents or in combination at 1:3 serial dilutions with a starting concentration of 200 nM and 20 microM for M13-C06 and for erlotinib respectively.

[4] = test system: MiaPaCa2 pancreatic carcinoma cells; assay: MiaPaCa2 pancreatic carcinoma xenograft; format: in vivo, mouse; details: gemcitabine alone, 20 mg/kg, Q4D×3
Description: Female SCID mice were innoculated in the right flank with 2×10^6 MiaPaCa2 pancreatic carcinoma cells in 50% Matrigel (BD Biosciences)/PBS.

[5] = test system: NSCLC, pancreatic, colon cancer and sarcoma cell lines; assay: Cell viability, M13-C06 and rapamycin alone or combined; format: cell-based
Procedure: For cell growth assays, cells were plated at 5000 cells per well in 96-well tissue culture plates in RPMI-1640 containing 10% fetal bovine serum (for most cell lines) or McCoy's 5A plus 15% FBS (for sarcoma cell lines). Cells were treated with M13-C06 and rapamycin (American Custom Chemicals Corp. cat# 53123-88-9) as a single agent or in combination at 1:3 serial dilutions with a starting concentration of 200 nM for M13-C06 and 100 nM or 1 microM for rapamycin for three or five days. Cell viability was determined by measuring ATP levels with CELL TITER GLO™ reagent.

[6] = test system: AKT and S6K signaling in sarcoma and lung tumor cell lines; assay: Western blot of AKT and S6K phosphorylation, M13-C06 and rapamycin; format: cell-based; details: 100 nM rapamycin, 3 hours
Procedure: It has been reported that rapamycin inhibition of mTOR induces AKT activation through S6K (S6 kinase) and IGF-1R/IRS-1 (Insulin Receptor Substrate-1) dependent feedback loop (O'Reilly, et al., Cancer Research, vol. 66, p. 1500-1508 (2006)). We therefore examined the effect of M13-C06 and rapamycin on AKT and S6K signaling in selected sarcoma and lung tumor cell lines in which M13-C06 enhanced the anti-tumor activity of rapamycin. Cells were plated onto 12 well plates at 6×10^5 per well, in McCoy's 5A medium plus 15% FBS for sarcoma and RPMI-1640 plus 10% FBS for NSCLC cell lines, and allowed to adhere overnight. The following day, media from wells was removed and replaced with 100 nM M13-C06 or IDEC151 in combination with either media (single agent control) or 100 nM rapamycin in media. Assay plates were incubated in a 37° C., 5% CO2 humidified incubator for 3 hours, cells were lysed in Cell Signaling Lysis Buffer (Cell Signal Technologies, #9803), and the lysates were normalized by protein concentration and run on a NUPAGE 4-12% Tris-Bis gel, then transferred to a nitrocellulose membrane. Phosphorylation status of AKT and S6K was detected by treatment with antibodies specific for phospho-AKT, total AKT phospho-S6K, or total S6K (Cell Signaling technology, cat# 2215, 2217), then by treatment with anti-Rabbit-IgG-HRP (Cell Signaling Biotechnology, cat# 7071). […]

`Oc1cccc(-c2nc(N3CCOCC3)c3oc4ncccc4c3n2)c1` [PI-103, 3-[4-(4-morpholinyl)pyrido[3′,2′:4,5]furo[3,2-d]pyrimidin-2-yl]-phenol, reference compound] was tested. Which cell growth [1] did it give?
Its cell growth is “None of the colon cancer cell lines appeared to be sensitive to PI-103 inhibition”.

`C#Cc1cccc(Nc2ncnc3cc(OCCOC)c(OCCOC)cc23)c1` [erlotinib, N-(3-ethynylphenyl)-6,7-bis(2-methoxyethoxy)quinazolin-4-amine, reference compound] was tested. Which “phosphorylation of MAPK” value ([2]; A549 cells) did it give?
Its value is “partial inhibition of MAPK phosphorylation”.

What about the “phosphorylation of MAPK” value ([2]; H322M cells) of the same compound?
Its value is “completely abolished detectable phosphorylation of MAPK”.

And the “phosphorylation of MAPK” value ([2]; H1299 and NCI-H23 cells)?
Its value is “little effect”.

And the cell growth ([3]; erlotinib single agent, 7 NSCLC cell lines, five days)?
The cell growth was “substantially inhibited the growth of only H322M and H1650 cell lines”.

What about the cell growth ([3]; erlotinib, 5 colon cancer cell lines) of the same compound?
The cell growth was “none of 5 colon cancer cell lines showed substantial growth inhibition”.

For `Nc1ccn([C@@H]2O[C@H](CO)[C@@H](O)C2(F)F)c(=O)n1` [gemcitabine], which tumor growth [4] is on record?
Its tumor growth is “inhibited tumor growth”.

Which cell growth ([5]; rapamycin, colon cancer cell lines) does the source give for “(16Z,24Z,26Z,28Z)-1,18-dihydroxy-12-[1-(4-hydroxy-3-methoxycyclohexyl)propan-2-yl]-19-methoxy-15,17,21,23,29,35-hexamethyl-30-(5-methylthiophen-2-yl)-11,36-dioxa-4-azatricyclo[30.3.1.0̂ {4,9}]hexatriaconta-16,24,26,28-tetraene-2,3,10,14,20-pentone [rapamycin, reference compound]” here?
The cell growth was “most colon cancer cell line tested did not respond well to rapamycin”.

What about the cell growth ([5]; single agent, SJSA-1 cells) of the same compound?
The cell growth was “did not respond”.

What about the “phosphorylation of S6K” value [6] of the same compound?
Its value is “inhibited phosphorylation of S6K”.

What about the AKT phosphorylation ([6]; all cell lines tested) of the same compound?
Its AKT phosphorylation is “induced AKT phosphorylation in all cell lines tested”.
